# According to paper PMC5091859, “Protein Translation Enzyme lysyl-tRNA Synthetase Presents a New Target for Drug Development against Causative Agents of Loiasis and Schistosomiasis” (PLoS Neglected Tropical Diseases, 2016):
# Where “and” joins values, the source holds several entries; their conditions need not be identical. Equal entries are not always repeated.
# Legend:
# [1] = target: SmKRS (S. mansoni lysyl-tRNA synthetase), wild type (Schistosoma mansoni, UniProt A0A3Q0KK01); test: Aminoacylation enzyme inhibition assay, SmKRS; format: biochemical; settings: 500 nM enzyme, 100 μM ATP, 500 μM L-lysine, 18 μM SmtRNALys, 37°C
# Protocol: Aminoacylation and enzyme inhibition assays for both KRSs were performed as described elsewhere [17, 48]. SmtRNA^Lys was refolded prior to enzyme assays by heating at 70°C for 10 minutes followed by addition of 10 mM MgCl2 and slow cooling to room temperature. Aminoacylation buffer for both worm KRSs contained 30 mM HEPES (pH 7.5), 150 mM NaCl, 30 mM KCl, 50 mM MgCl2, 1mM DTT, 100 μM ATP, 500 μM L-lysine, 18 μM SmtRNA^Lys, 2 U/ml E. coli inorganic pyrophosphatase (NEB) and 500 nM recombinant SmKRS or LlKRS protein at 37°C. Reaction at different time points was stopped by addition of 40 mM EDTA followed by transfer to ice. Recombinant maltose binding protein (MBP) was used as a control.
# LlKRS [2] = target: T1, LlKRS (Loa loa, UniProt A0A1I7VQ84); test: Isothermal titration calorimetry, LlKRS; format: binding; settings: 30°C
# Protocol: (§1) ITC experiments were conducted at 30°C in the MicroCal ITC-200 apparatus (GE Healthcare) and results were fitted into graph using Microcal origin software. […] For LlKRS, titrations consisted of 0.4 μl of first injection followed by 39 injections of 1 μl with 150 s intervals between injections. For SmKRS, same titrations were performed with 120 s intervals.
# SmKRS [3] = target: T2, SmKRS (Schistosoma mansoni, UniProt A0A3Q0KK01); test: Isothermal titration calorimetry, SmKRS; format: binding; settings: 30°C
# Protocol: as §1
# [4] = target: human counterpart KRS (HsKRS); settings: read-out: Affinity for human counterpart KRS; cited from earlier work
# malaria blood stage = system: malaria blood stage; set-up: method as in PMID 22704625; settings: cited from earlier work
# malaria liver stage = system: malaria liver stage; set-up: method as in PMID 22704625; settings: cited from earlier work
# [5] = set-up: method as in PMID 22704625; settings: main limitation as a lead molecule; cited from earlier work
# [6] = target: Loa loa lysyl-tRNA synthetase (Loa loa); test: SEC; gel permeation chromatography of the purified protein on a column calibrated with high molecular weight standards, protein buffer as mobile phase, 0.5 ml/min; elution at dimer size, no absorbance at tetrameric size
# [7] = target: Schistosoma mansoni lysyl-tRNA synthetase (Schistosoma mansoni); test: as above
# LlKRS [8] = target: T1, LlKRS; test: Protein thermal shift assay, LlKRS; format: binding; settings: ligand 20 μM, KRS 2 μM (10:1), 1 mM L-lysine
# Protocol: (§2) Protein melt curve assays for both worm KRSs were performed as reported earlier. Both KRSs were diluted in buffer containing 20 mM Tris (pH 8.0), 200 mM NaCl, 5 mM MgCl2, 1 mM L-lysine and 2 X SYPRO orange dye (Life Technologies). […] Ligand bound and unbound samples of both KRSs were heated from 20 to 96°C at a rate of 1°C min^-1 and fluorescence signals were monitored by StepOnePlus quantitative real-time PCR system (Life Technologies). […] Each curve was an average of three measurements and data were analyzed using thermal shift software (Life technologies). Samples without the addition of ligands were used to determine thermal melting profile of apo proteins. […] Derivative Tm (melting temperature) was used for analysis.
# SmKRS [9] = target: T2, SmKRS; test: Protein thermal shift assay, SmKRS; format: binding; settings: ligand 20 μM, KRS 2 μM (10:1), 1 mM L-lysine
# Protocol: as §2
# [10] = target: Human-like LlKRS V329Q/S346T mutant (Loa loa, UniProt A0A1I7VQ84); format: binding; settings: ligand 20 μM, KRS 2 μM (ten fold), 1 mM L-lysine
molecule,measurement,setting,value
C[C@H]1CCC[C@H](C[C@H]2Cc3cc(O)cc(O)c3C(=O)O2)O1 [cladosporin],IC50,[1],97 nM and ~97 nM
same,"n Value (one site model), LlKRS",LlKRS [2],0.821 ± 0.01
same,"ΔH (ITC), LlKRS",LlKRS [2],-17.28 ± 0.3965 kcal/mol
same,"ΔS (ITC), LlKRS",LlKRS [2],-24.9 cal/mol/deg
same,"n Value (one site model), SmKRS",SmKRS [3],0.979 ±0.00
same,"ΔH (ITC), SmKRS",SmKRS [3],-16.59 ± 0.2013 kcal/mol
same,"ΔS (ITC), SmKRS",SmKRS [3],-21.7 cal/mol/deg
same,Kd,"SmKRS [3]; PBS pH 7.4, 1 mM L-Lys, 2 mM MgCl2, read-out: Kd (ITC), SmKRS",62.8 ± 7.8 nM
same,Kd,[4],3300 nM
same,IC50,malaria blood stage,< 100 nM
same,IC50,malaria liver stage,< 100 nM
same,Bioavailability,[5],Poor
Loa loa lysyl-tRNA synthetase (enzyme),stoichiometry N,[6],2
Schistosoma mansoni lysyl-tRNA synthetase (enzyme),stoichiometry N,[7],2
"adenosine 5’-(β, γ-imido) triphosphate [AMPPNP]",Thermal shift of LlKRS,LlKRS [8],~ 0.3 °C
same,Thermal shift of SmKRS,SmKRS [9],~ 0.4 °C
same,Thermal shift of human-like LlKRS,[10],~ 0.4 °C
